Source: ChEMBL document CHEMBL5584348, “Exploring Degradation of Intrinsically Disordered Protein Yes-Associated Protein Induced by Proteolysis TArgeting Chimeras” (J Med Chem, 2024)
Active and inactive are the calls of the source. The rule behind the calls is not given here.

What was measured:
[1] = molecular target: Transcriptional coactivator YAP1 (Homo sapiens) (UniProt P46937); test: Induction of YAP degradation in human NCI-H290 cells at 5 uM relative to control; assay type: cell-based
Huh-7 [2] = test: Antitumor activity against human Huh-7 cells xenografted in immunodeficient male NSG mouse assessed as tumor growth inhibition at 100 mg/kg, po administered every 3 days for 24 days; assay type: functional; details: Huh-7, 576 h, time 24 day, read-out: TGI
NCI-H226 [3] = test: Antiproliferative activity against human NCI-H226 cells assessed as cell killing at 10 uM incubated for 3 days by CCK-8 assay; assay type: functional, cell-based; details: time 3.0 day
NCI-H226 [4] = test: Antiproliferative activity against human NCI-H226 cells assessed as cell growth inhibition incubated for 3 days by CCK-8 assay; assay type: functional, cell-based; details: time 3.0 day
[5] = molecular target: T1, von Hippel-Lindau disease tumor suppressor/Transcriptional coactivator YAP1 (Homo sapiens, UniProt P40337+P46937); test: PROTAC activity at YAP/VHL in human NCI-H226 cells assessed as induction of YAP degradation at 10 uM incubated for 48 hrs by Western blot analysis; assay type: cell-based
Target sequence in this assay (P40337 whole entry, looked up): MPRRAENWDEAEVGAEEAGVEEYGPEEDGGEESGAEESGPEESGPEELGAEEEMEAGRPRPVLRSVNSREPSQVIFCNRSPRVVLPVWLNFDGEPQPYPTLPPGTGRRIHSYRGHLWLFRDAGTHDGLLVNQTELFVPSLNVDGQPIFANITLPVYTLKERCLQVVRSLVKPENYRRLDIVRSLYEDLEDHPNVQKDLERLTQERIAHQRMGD
Target sequence in this assay (P46937 whole entry, looked up): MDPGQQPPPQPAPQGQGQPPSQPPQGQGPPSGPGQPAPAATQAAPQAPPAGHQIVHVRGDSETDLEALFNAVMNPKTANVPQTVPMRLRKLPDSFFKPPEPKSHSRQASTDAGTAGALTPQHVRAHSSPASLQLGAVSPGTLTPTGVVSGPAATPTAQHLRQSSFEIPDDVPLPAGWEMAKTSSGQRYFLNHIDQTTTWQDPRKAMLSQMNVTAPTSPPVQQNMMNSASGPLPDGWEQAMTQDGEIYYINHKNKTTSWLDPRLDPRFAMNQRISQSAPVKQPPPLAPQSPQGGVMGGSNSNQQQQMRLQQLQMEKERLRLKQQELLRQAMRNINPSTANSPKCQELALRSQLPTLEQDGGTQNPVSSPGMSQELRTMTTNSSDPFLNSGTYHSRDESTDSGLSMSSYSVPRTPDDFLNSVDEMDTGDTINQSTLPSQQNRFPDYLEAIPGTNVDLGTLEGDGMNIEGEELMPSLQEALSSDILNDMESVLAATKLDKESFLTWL

[6] = molecular target: T2, Protein cereblon/Transcriptional coactivator YAP1 (Homo sapiens) (UniProt P46937+Q96SW2); test: PROTAC activity at YAP/CRBN in human NCI-H226 cells assessed as induction of YAP degradation 10 uM incubated for 48 hrs by Western blot analysis; assay type: cell-based
T2 sequence (P46937 whole entry, looked up): as above
T2 sequence (Q96SW2 whole entry, looked up): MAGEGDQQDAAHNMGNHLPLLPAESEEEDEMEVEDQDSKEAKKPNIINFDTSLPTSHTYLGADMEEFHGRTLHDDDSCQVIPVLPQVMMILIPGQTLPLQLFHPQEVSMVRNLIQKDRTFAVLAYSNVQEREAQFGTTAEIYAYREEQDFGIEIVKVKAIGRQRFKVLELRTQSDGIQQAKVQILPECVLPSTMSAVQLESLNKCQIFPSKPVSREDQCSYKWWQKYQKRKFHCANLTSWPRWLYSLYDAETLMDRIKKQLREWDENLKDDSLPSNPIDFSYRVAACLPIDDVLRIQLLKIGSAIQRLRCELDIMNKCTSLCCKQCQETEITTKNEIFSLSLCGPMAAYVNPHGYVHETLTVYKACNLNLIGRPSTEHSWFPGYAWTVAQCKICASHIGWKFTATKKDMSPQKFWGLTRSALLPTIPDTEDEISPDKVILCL

NCI-H226 [7] = test: Antiproliferative activity against human NCI-H226 cells assessed as cell killing upto 3.13 uM incubated for 4 days by CCK-8 assay; assay type: functional, cell-based; details: time 4.0 day
[8] = molecular target: T2, Protein cereblon/Transcriptional coactivator YAP1 (Homo sapiens); test: PROTAC activity at YAP/CRBN in human NCI-H226 cells assessed as induction of YAP degradation at 10 uM incubated for 48 hrs by Western blot analysis; assay type: cell-based
[9] = molecular target: T1, von Hippel-Lindau disease tumor suppressor/Transcriptional coactivator YAP1; test: PROTAC activity at YAP/VHL in human NCI-H226 cells assessed as induction of YAP degradation 10 uM incubated for 48 hrs by Western blot analysis; assay type: cell-based
Target sequence in this assay (P40337 whole entry, looked up): as the sequence (P40337 whole entry, looked up) above
Target sequence in this assay (P46937 whole entry, looked up): as the sequence (P46937 whole entry, looked up) above

NCI-H226 [10] = test: Antiproliferative activity against NF2 deficient- human NCI-H226 cells assessed as maximum cell growth inhibition incubated for 4 days by CCK-8 assay relative to control; assay type: functional; details: time 4 day
Huh-7 [11] = test: Antiproliferative activity against human Huh-7 cells overexpressing YAP assessed as cell growth inhibition incubated for 4 days by CCK-8 assay; assay type: functional, cell-based; details: Huh-7, 96 h
NCI-H226 [12] = test: Antiproliferative activity against NF2 deficient- human NCI-H226 cells assessed as cell growth inhibition incubated for 4 days by CCK-8 assay; assay type: functional, cell-based; details: NCI-H226, 96 h
[13] = molecular target: Transcriptional enhancer factor TEF-1 (Homo sapiens) (UniProt P28347); test: Inhibition of TEAD transcriptional activity in human HEK293T cells incubated for 24 hrs by luciferase reporter assay; assay type: cell-based
Transcriptional enhancer factor TEF-1 (Homo sapiens), sequence (P28347 whole entry): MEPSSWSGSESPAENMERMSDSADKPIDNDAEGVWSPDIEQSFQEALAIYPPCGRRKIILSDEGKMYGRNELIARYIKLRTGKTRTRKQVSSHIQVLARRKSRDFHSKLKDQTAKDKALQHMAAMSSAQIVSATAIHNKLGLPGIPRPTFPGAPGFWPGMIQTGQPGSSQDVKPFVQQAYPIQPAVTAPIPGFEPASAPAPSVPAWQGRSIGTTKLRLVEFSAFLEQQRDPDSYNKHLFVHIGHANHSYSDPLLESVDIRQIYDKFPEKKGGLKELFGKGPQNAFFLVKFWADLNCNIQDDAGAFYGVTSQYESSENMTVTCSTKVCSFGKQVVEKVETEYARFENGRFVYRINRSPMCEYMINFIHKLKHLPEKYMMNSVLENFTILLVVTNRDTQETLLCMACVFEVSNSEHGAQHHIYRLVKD

[14] = molecular target: T1, von Hippel-Lindau disease tumor suppressor/Transcriptional coactivator YAP1; test: PROTAC activity at YAP/VHL in human NCI-H226 cells assessed as induction of YAP degradation incubated for 48 hrs by Western blot analysis; assay type: cell-based
Target sequence in this assay (P40337 whole entry): as the sequence (P40337 whole entry, looked up) above
Target sequence in this assay (P46937 whole entry): as the sequence (P46937 whole entry, looked up) above

[15] = molecular target: T1, von Hippel-Lindau disease tumor suppressor/Transcriptional coactivator YAP1; test: PROTAC activity at YAP/VHL in human NCI-H226 cells assessed as reduction in CTGF expression incubated for 48 hrs by Western blot analysis; assay type: cell-based; details: dose 2.5-20 µM
Target sequence in this assay (P40337 whole entry, looked up): as the sequence (P40337 whole entry, looked up) above
Target sequence in this assay (P46937 whole entry, looked up): as the sequence (P46937 whole entry, looked up) above

NCI-H226 [16] = test: Antiproliferative activity against human NCI-H226 cells assessed as cell killing at 12.5 uM incubated for 3 days by CCK-8 assay; assay type: functional, cell-based; details: time 3.0 day
[17] = molecular target: T1, von Hippel-Lindau disease tumor suppressor/Transcriptional coactivator YAP1; test: PROTAC activity at YAP/VHL in human NCI-H226 cells assessed as effect on YAP level at 10 uM incubated for 48 hrs by Western blot analysis; assay type: cell-based
Target sequence in this assay (P40337 whole entry, looked up): as the sequence (P40337 whole entry, looked up) above
Target sequence in this assay (P46937 whole entry, looked up): as the sequence (P46937 whole entry, looked up) above

[18] = molecular target: T1, von Hippel-Lindau disease tumor suppressor/Transcriptional coactivator YAP1; test: PROTAC activity at YAP/VHL in human NCI-H226 cells assessed as reduction in YAP level at 10 uM incubated for 48 hrs by Western blot analysis; assay type: cell-based
Target sequence in this assay (P40337 whole entry, looked up): as the sequence (P40337 whole entry, looked up) above
Target sequence in this assay (P46937 whole entry, looked up): as the sequence (P46937 whole entry, looked up) above

[19] = molecular target: T2, Protein cereblon/Transcriptional coactivator YAP1 (Homo sapiens); test: PROTAC activity at YAP/CRBN in human NCI-H226 cells assessed as effect on YAP level at 10 uM incubated for 48 hrs by Western blot analysis; assay type: cell-based

Transcriptional coactivator YAP1 (Homo sapiens), sequence (P46937 whole entry): as the sequence (P46937 whole entry, looked up) above

CN[C@@H](C)C(=O)N[C@H](C(=O)N1CCC[C@H]1c1nc(C(=O)c2cccc(OCCOCCNC(=O)[C@]34CC[C@@H](C(C)=O)[C@@H]3[C@H]3CC[C@@H]5[C@@]6(C)CC[C@H](O)C(C)(C)[C@@H]6CC[C@@]5(C)[C@]3(C)CC4)c2)cs1)C1CCCCC1
Activity [1]: < 50%

CNC(=O)c1cc(Oc2ccc(NC(=O)Nc3ccc(Cl)c(C(F)(F)F)c3)cc2)ccn1 [SORAFENIB]
inhibition in vivo at 100 mg/kg (Huh-7 [2]): 76%

COc1cc(-c2cc(-c3ccccc3)nc3c2CC(=O)Nc2ccccc2-3)ccc1OCCOCCC(=O)N[C@H](C(=O)N1C[C@H](O)C[C@H]1C(=O)N[C@@H](C)c1ccc(-c2scnc2C)cc1)C(C)(C)C
Activity (NCI-H226 [3]): inactive

COc1cc(-c2cc(-c3ccccc3)nc3c2CC(=O)Nc2ccccc2-3)ccc1OCC(=O)NCCOCCOCCNc1cccc2c1C(=O)N(C1CCC(=O)NC1=O)C2=O (configuration not stated)
Activity (NCI-H226 [3]): inactive

COc1cc(-c2cc(-c3ccccc3)nc3c2CC(=O)Nc2ccccc2-3)ccc1OCCCCCCCC(=O)N[C@H](C(=O)N1C[C@H](O)C[C@H]1C(=O)N[C@@H](C)c1ccc(-c2scnc2C)cc1)C(C)(C)C
Activity (NCI-H226 [3]): inactive

COc1ccc(-c2cc(-c3ccccc3)nc3c2CC(=O)Nc2ccccc2-3)cc1OCCOCC(=O)N[C@H](C(=O)N1C[C@H](O)C[C@H]1C(=O)N[C@@H](C)c1ccc(-c2scnc2C)cc1)C(C)(C)C
Activity (NCI-H226 [4]): Active
Activity [5]: inactive
Activity (NCI-H226 [3]): inactive

COc1ccc(-c2cc(-c3ccc(OCC(=O)NCCOCCOCCOCCNc4cccc5c4C(=O)N(C4CCC(=O)NC4=O)C5=O)cc3)nc3c2CC(=O)Nc2ccccc2-3)cc1OC (configuration not stated)
Activity [6]: inactive
Activity (NCI-H226 [7]): inactive

COc1ccc(-c2cc(-c3ccccc3)nc3c2CC(=O)Nc2ccccc2-3)cc1OCCOCCOCCC(=O)N[C@H](C(=O)N1C[C@H](O)C[C@H]1C(=O)N[C@@H](C)c1ccc(-c2scnc2C)cc1)C(C)(C)C
Activity (NCI-H226 [4]): Active
Activity [5]: inactive
Activity (NCI-H226 [3]): inactive

COc1ccc(-c2cc(-c3ccccc3)nc3c2CC(=O)Nc2ccccc2-3)cc1OCC(=O)NCCOCCNc1cccc2c1C(=O)N(C1CCC(=O)NC1=O)C2=O (configuration not stated)
Activity (NCI-H226 [4]): Active
Activity [8]: inactive
Activity (NCI-H226 [3]): inactive

COc1ccc(-c2cc(-c3ccc(OCCCCCC(=O)N[C@H](C(=O)N4C[C@H](O)C[C@H]4C(=O)N[C@@H](C)c4ccc(-c5scnc5C)cc4)C(C)(C)C)cc3)nc3c2CC(=O)Nc2ccccc2-3)cc1OC
Activity [9]: inactive
Activity (NCI-H226 [7]): inactive

COc1cc(-c2cc(-c3ccccc3)nc3c2CC(=O)Nc2ccccc2-3)ccc1OCCCCCC(=O)N[C@H](C(=O)N1C[C@H](O)C[C@H]1C(=O)N[C@@H](C)c1ccc(-c2scnc2C)cc1)C(C)(C)C
Activity (NCI-H226 [3]): inactive

COc1ccc(-c2cc(-c3ccccc3)nc3c2CC(=O)Nc2ccccc2-3)cc1OC
inhibition (INH) (NCI-H226 [10]): 95%
IC50 (Huh-7 [11]): 69 µM
IC50 (NCI-H226 [12]): 3.9 µM

CC(=O)c1ccc(OCc2ccccc2)cc1
TEAD transcriptional inhibition (active/inactive call) [13]: Active

COc1ccc(-c2cc(-c3ccccc3)nc3c2CC(=O)Nc2ccccc2-3)cc1OCC(=O)NCCOCCOCCOCCNc1cccc2c1C(=O)N(C1CCC(=O)NC1=O)C2=O (configuration not stated)
Activity (NCI-H226 [4]): Active
Activity [8]: inactive
Activity (NCI-H226 [3]): inactive

COc1ccc(-c2cc(-c3ccccc3)nc3c2CC(=O)Nc2ccccc2-3)cc1OCc1ccccc1
TEAD transcriptional inhibition (active/inactive call) [13]: Active

COc1ccc(-c2cc(-c3ccccc3)nc3c2CC(=O)Nc2ccccc2-3)cc1OCCOC(C)=O
TEAD transcriptional inhibition (active/inactive call) [13]: Active

COc1ccc(-c2cc(-c3ccccc3)nc3c2CC(=O)Nc2ccccc2-3)cc1OCC(=O)NCCOCCOCCNc1cccc2c1C(=O)N(C1CCC(=O)NC1=O)C2=O (configuration not stated)
Activity (NCI-H226 [4]): Active
Activity [8]: inactive
Activity (NCI-H226 [3]): inactive

COc1ccc(-c2cc(-c3ccc(OCCCCCCCC(=O)N[C@H](C(=O)N4C[C@H](O)C[C@H]4C(=O)N[C@@H](C)c4ccc(-c5scnc5C)cc4)C(C)(C)C)cc3)nc3c2CC(=O)Nc2ccccc2-3)cc1OC
Activity [9]: inactive
Activity (NCI-H226 [7]): inactive

COc1ccc(-c2cc(-c3ccc(OCC(=O)NCCOCCNc4cccc5c4C(=O)N(C4CCC(=O)NC4=O)C5=O)cc3)nc3c2CC(=O)Nc2ccccc2-3)cc1OC (configuration not stated)
Activity [6]: inactive
Activity (NCI-H226 [7]): inactive

COc1cc(-c2cc(-c3ccccc3)nc3c2CC(=O)Nc2ccccc2-3)ccc1OCC(=O)NCCOCCNc1cccc2c1C(=O)N(C1CCC(=O)NC1=O)C2=O (configuration not stated)
Activity (NCI-H226 [3]): inactive

COc1cc(-c2cc(-c3ccccc3)nc3c2CC(=O)Nc2ccccc2-3)ccc1OCCOCC(=O)N[C@H](C(=O)N1C[C@H](O)C[C@H]1C(=O)N[C@@H](C)c1ccc(-c2scnc2C)cc1)C(C)(C)C
DC50 [14]: 14.9 µM
Activity [15]: Dose-Dependent Effect
Activity (NCI-H226 [3]): inactive

COc1cc(-c2cc(-c3ccccc3)nc3c2CC(=O)Nc2ccccc2-3)ccc1OCCCCCCCCCC(=O)N[C@H](C(=O)N1C[C@H](O)C[C@H]1C(=O)N[C@@H](C)c1ccc(-c2scnc2C)cc1)C(C)(C)C
Activity (NCI-H226 [16]): inactive
Activity [17]: inactive

COc1ccc(-c2cc(-c3ccccc3)nc3c2CC(=O)Nc2ccccc2-3)cc1O
TEAD transcriptional inhibition (active/inactive call) [13]: Active

COc1ccc(-c2cc(-c3ccccc3)nc3c2CC(=O)Nc2ccccc2-3)cc1OCCOCCC(=O)N[C@H](C(=O)N1C[C@H](O)C[C@H]1C(=O)N[C@@H](C)c1ccc(-c2scnc2C)cc1)C(C)(C)C
Activity (NCI-H226 [4]): Active
Activity [5]: inactive
Activity (NCI-H226 [3]): inactive

COc1ccc(-c2cc(-c3ccc(OCCOCCOCCC(=O)N[C@H](C(=O)N4C[C@H](O)C[C@H]4C(=O)N[C@@H](C)c4ccc(-c5scnc5C)cc4)C(C)(C)C)cc3)nc3c2CC(=O)Nc2ccccc2-3)cc1OC
Activity [9]: inactive
Activity (NCI-H226 [7]): inactive

COc1cc(-c2cc(-c3ccccc3)nc3c2CC(=O)Nc2ccccc2-3)ccc1OCCOCCOCCOCCC(=O)N[C@H](C(=O)N1C[C@H](O)C[C@H]1C(=O)N[C@@H](C)c1ccc(-c2scnc2C)cc1)C(C)(C)C
Activity [18]: Active
Activity (NCI-H226 [3]): inactive

COc1cc(-c2cc(-c3ccccc3)nc3c2CC(=O)Nc2ccccc2-3)ccc1OCC(=O)NCCOCCOCCOCCNc1cccc2c1C(=O)N(C1CCC(=O)NC1=O)C2=O (configuration not stated)
Activity (NCI-H226 [16]): inactive
Activity [19]: inactive

COc1ccc(-c2cc(-c3ccc(OCC(=O)NCCOCCOCCNc4cccc5c4C(=O)N(C4CCC(=O)NC4=O)C5=O)cc3)nc3c2CC(=O)Nc2ccccc2-3)cc1OC (configuration not stated)
Activity [6]: inactive
Activity (NCI-H226 [7]): inactive

COc1cc(-c2cc(-c3ccccc3)nc3c2CC(=O)Nc2ccccc2-3)ccc1OCCOC(C)=O
TEAD transcriptional inhibition (active/inactive call) [13]: Active

COc1cc(-c2cc(-c3ccccc3)nc3c2CC(=O)Nc2ccccc2-3)ccc1O
TEAD transcriptional inhibition (active/inactive call) [13]: Active

COc1ccc(-c2cc(-c3ccc(OCCCCCCCCCC(=O)N[C@H](C(=O)N4C[C@H](O)C[C@H]4C(=O)N[C@@H](C)c4ccc(-c5scnc5C)cc4)C(C)(C)C)cc3)nc3c2CC(=O)Nc2ccccc2-3)cc1OC
Activity [9]: inactive
Activity (NCI-H226 [7]): inactive
